Patent publication US20080213250A1, “Use of Eph Receptor Inhibitors for the Treatment of Neurodegenerative Diseases” (priority 2004, published 2008)

What was measured:
EphA6 = target: T1, EphA6 (Mus musculus, UniProt Q62413); assay: Chemical proteomics pull-down with immobilized compound, LC-MS/MS identification; settings: maximum in any chemical proteomics experiment
T1 sequence (Q62413 23-1035): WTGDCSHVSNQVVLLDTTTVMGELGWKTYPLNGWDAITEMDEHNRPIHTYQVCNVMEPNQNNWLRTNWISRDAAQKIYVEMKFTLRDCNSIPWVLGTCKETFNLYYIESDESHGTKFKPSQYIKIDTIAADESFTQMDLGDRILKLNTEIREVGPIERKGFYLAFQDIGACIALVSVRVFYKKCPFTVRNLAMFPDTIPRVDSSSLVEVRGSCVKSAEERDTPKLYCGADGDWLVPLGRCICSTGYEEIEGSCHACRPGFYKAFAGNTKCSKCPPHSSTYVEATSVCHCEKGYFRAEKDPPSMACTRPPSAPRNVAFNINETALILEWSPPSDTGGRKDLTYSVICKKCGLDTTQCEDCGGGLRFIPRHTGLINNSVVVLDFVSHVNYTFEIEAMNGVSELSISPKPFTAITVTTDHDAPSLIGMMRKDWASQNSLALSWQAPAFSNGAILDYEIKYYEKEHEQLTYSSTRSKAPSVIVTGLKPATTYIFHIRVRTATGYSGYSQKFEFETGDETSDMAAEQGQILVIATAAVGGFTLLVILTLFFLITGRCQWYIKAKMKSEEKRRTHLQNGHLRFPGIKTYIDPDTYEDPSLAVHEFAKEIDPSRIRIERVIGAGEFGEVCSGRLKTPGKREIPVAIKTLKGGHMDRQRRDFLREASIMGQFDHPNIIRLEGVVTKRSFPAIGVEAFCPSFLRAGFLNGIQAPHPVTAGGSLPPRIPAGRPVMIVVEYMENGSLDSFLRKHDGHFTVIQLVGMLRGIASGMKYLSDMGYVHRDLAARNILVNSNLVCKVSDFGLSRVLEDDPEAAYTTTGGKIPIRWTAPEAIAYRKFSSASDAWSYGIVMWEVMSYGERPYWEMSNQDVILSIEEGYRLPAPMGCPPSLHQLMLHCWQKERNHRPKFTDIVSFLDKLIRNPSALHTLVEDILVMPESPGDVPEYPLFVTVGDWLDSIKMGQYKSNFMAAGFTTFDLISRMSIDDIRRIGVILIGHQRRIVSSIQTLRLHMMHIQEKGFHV

TAP-tagged Eph kinases [1] = assay: Autophosphorylation of TAP-tagged Eph kinases in cells; format: cell-based; settings: in cells (FIG. 2)
Protocol: Cells are plated in 6-well plates in growth medium (see above). To test potential modulators, preferably inhibitors, of Eph kinase tyrosine phosphorylation, cells are starved in serum-free medium for 4 h. Under these conditions, Eph-TAP kinase is partially constitutively phosphorylated-presumably through autophosphorylation that is commonly associated with over-expression of receptor tyrosine kinases. This feature is exploited to monitor the effect of Eph kinase modulators. Test compounds are diluted (from a stock in DMSO) in serum-free medium and added to cells for indicated times. Cells are chilled on ice and washed with ice-cold PBS. They are then lysed in 300 μl lysis buffer (50 mM Tris-HCl, 1% NP-40, 0.05% SDS, 100 mM NaCl, 1.5 mM MgCl2, 2 mM EDTA, 5% glycerol, pH 7.6) for 20 min at 4 °C and cleared by centrifugation at 16,100×g in a table-top centrifuge for 20 min.
(§1) Lysates are subsequently incubated with 20 μl pre-washed rabbit IgG beads (Sigma) for 2 h with constant agitation at 4° C. Beads are finally washed with 1 ml of lysis buffer and immobilized protein complexes are eluted by boiling in 40 μl SDS sample buffer.
Blot membranes are probed with monoclonal antibody 4G10 (Upstate Biotechnology) or with HRP-coupled PAP antibody (see above).

EphB2-TAP = target: T2, EphB2-TAP (Homo sapiens, UniProt P29323); assay: Cellular Eph kinase tyrosine phosphorylation assay; format: cell-based; settings: SK-N-BE2 neuroblastoma cells, treatment 10 min. at 37 °C, Western blot anti-phosphotyrosine
T2 construct: The cDNAs encoding the complete ORF are obtained by RT-PCR; expressed in transfected cells; host or cells: SK-N-BE2 neuroblastoma cells (ATCC CRL-2271), retroviral transduction
T2 sequence (P29323 19-1055): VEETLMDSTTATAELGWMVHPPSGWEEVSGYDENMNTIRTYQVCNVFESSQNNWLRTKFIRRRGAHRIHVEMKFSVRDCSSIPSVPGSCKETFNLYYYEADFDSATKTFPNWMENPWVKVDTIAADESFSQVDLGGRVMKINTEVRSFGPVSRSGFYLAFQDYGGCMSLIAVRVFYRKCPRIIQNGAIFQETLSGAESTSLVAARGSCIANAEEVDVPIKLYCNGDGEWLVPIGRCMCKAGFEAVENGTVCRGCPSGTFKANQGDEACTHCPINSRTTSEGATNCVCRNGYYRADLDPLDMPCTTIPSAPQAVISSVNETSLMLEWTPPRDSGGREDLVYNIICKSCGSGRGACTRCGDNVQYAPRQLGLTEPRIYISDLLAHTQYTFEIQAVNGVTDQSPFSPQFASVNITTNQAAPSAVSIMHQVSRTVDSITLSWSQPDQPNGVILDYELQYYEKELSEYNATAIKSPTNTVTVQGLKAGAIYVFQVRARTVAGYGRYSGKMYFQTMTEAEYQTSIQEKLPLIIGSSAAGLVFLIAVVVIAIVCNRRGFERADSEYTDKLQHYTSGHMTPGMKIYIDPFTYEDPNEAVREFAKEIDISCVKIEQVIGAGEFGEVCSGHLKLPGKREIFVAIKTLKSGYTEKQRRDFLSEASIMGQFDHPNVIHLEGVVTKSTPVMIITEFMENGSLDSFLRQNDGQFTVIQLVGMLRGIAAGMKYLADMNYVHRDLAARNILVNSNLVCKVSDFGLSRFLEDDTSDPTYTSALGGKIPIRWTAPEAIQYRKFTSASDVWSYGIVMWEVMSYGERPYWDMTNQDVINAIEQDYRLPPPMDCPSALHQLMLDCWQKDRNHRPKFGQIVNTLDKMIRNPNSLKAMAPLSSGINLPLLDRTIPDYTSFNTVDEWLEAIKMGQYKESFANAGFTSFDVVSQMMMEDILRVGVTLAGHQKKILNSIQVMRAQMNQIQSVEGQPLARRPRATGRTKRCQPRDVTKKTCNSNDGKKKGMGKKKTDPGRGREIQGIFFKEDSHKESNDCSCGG
Protocol: (§2) Following treatment, cells were lysed in a detergent-containing buffer and TAP-tagged Eph kinases were captured with IgG beads. Bound TAP-tagged proteins were analyzed by SDS-PAGE and Western blotting, utilizing either anti-phosphotyrosine or anti-TAP antibodies for detection.
(§3) Cells are plated in 6-well plates in growth medium (see above). […] This feature is exploited to monitor the effect of Eph kinase modulators. Test compounds are diluted (from a stock in DMSO) in serum-free medium and added to cells for indicated times. Cells are chilled on ice and washed with ice-cold PBS. They are then lysed in 300 μl lysis buffer (50 mM Tris-HCl, 1% NP-40, 0.05% SDS, 100 mM NaCl, 1.5 mM MgCl2, 2 mM EDTA, 5% glycerol, pH 7.6) for 20 min at 4 °C and cleared by centrifugation at 16,100×g in a table-top centrifuge for 20 min.
as §1

EphA4-TAP = target: T3, EphA4-TAP (Homo sapiens, UniProt P54764); assay: Cellular Eph kinase tyrosine phosphorylation assay; format: cell-based; settings: SK-N-BE2 neuroblastoma cells, treatment 10 min. at 37 °C, Western blot anti-phosphotyrosine
T3 construct: The cDNAs encoding the complete ORF are obtained by RT-PCR; expressed in transfected cells; host or cells: SK-N-BE2 neuroblastoma cells (ATCC CRL-2271), retroviral transduction
Protocol: as §2, §3, §1

TAP-tagged Eph kinases [2] = assay: Autophosphorylation of TAP-tagged Eph kinases in-vitro; format: biochemical; settings: data not shown

T3 sequence (P54764 20-986): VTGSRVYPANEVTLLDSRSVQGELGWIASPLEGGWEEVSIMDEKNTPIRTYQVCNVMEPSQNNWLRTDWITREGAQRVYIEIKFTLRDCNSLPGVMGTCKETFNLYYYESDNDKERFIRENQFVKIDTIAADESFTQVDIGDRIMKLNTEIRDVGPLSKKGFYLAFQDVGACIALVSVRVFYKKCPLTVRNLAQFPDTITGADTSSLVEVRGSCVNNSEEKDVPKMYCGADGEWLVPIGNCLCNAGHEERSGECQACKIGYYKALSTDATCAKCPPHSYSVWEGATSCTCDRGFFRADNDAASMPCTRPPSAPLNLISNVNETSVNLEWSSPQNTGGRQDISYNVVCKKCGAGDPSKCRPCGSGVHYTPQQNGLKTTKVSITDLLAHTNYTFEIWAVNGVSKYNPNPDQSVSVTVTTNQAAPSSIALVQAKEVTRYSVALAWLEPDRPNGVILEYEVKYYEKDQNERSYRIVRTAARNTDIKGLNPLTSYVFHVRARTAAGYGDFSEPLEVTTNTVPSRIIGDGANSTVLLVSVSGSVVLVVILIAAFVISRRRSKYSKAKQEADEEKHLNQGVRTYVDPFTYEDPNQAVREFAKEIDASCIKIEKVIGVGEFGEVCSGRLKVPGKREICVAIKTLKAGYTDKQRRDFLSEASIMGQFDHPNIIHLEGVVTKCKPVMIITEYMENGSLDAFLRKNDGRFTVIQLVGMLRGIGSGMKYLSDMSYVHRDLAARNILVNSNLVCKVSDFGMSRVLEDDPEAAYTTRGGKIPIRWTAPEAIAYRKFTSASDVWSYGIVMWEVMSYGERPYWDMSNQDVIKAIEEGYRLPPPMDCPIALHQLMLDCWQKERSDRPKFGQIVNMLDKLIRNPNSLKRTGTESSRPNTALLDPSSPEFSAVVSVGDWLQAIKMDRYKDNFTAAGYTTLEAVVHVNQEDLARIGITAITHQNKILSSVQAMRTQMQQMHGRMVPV

NCCCn1cc(C2=C(c3c[nH]c4ccccc34)C(=O)NC2=O)c2ccccc21 [BisIII]
maximal number of non-redundant peptides identified, EphA6 (EphA6): 7

Cc1ccc(NC(=O)c2ccc(CN3CCN(C)CC3)cc2)cc1Nc1nccc(-c2cccnc2)n1 [Gleevac]
inhibition of autophosphorylation of TAP-tagged Eph kinases in cells (TAP-tagged Eph kinases [1]): potent inhibitors
tyrosine phosphorylation of EphB2-TAP (EphB2-TAP): inhibits tyrosine phosphorylation of Eph kinases in a concentration-dependent manner
tyrosine phosphorylation of EphA4-TAP (EphA4-TAP): inhibits tyrosine phosphorylation of Eph kinases in a concentration-dependent manner
inhibition of autophosphorylation of TAP-tagged Eph kinases in-vitro (TAP-tagged Eph kinases [2]): potent inhibitors
